This data set in a line: Short-term stability in spiked pooled human plasma (bench-top, 4 °C, 56 °C).

Take `CNC(=O)c1ccc(N2C(=S)N(c3ccc(C#N)c(C(F)(F)F)c3)C(=O)C2(C)C)cc1F` [Enzalutamide]: where the note is “validation standard 2xLLOV”, the “Short-time stability (1h, 56°C) Accuracy [%]” value is listed as 59.4%; the “Short-time stability (24h, 4°C, without daylight) Accuracy [%]” value is given as 103.3%; the “Short-time stability (24h, RT, with daylight) Accuracy [%]” value was 106.1%; the “Short-time stability (24h, RT, without daylight) Accuracy [%]” value amounted to 108.3%. In addition, for the setting “validation standard LLOV”, the “Short-time stability (1h, 56°C) Accuracy [%]” value was 50.0%; the “Short-time stability (24h, 4°C, without daylight) Accuracy [%]” value came to 102.0%; the “Short-time stability (24h, RT, with daylight) Accuracy [%]” value stood at 100.4%; the “Short-time stability (24h, RT, without daylight) Accuracy [%]” value turned out to be 103.0%. For the same molecule, for the setting “validation standard MOV”, the “Short-time stability (1h, 56°C) Accuracy [%]” value was 58.9%; the “Short-time stability (24h, 4°C, without daylight) Accuracy [%]” value is 98.9%; the “Short-time stability (24h, RT, with daylight) Accuracy [%]” value is given as 108.7%; the “Short-time stability (24h, RT, without daylight) Accuracy [%]” value is 107.8%. For the same molecule, under “validation standard ULOV”, the “Short-time stability (1h, 56°C) Accuracy [%]” value was 50.9%; the “Short-time stability (24h, 4°C, without daylight) Accuracy [%]” value was 95.8%; the “Short-time stability (24h, RT, with daylight) Accuracy [%]” value was 103.4%; the “Short-time stability (24h, RT, without daylight) Accuracy [%]” value is listed as 103.8%.
Regarding `C#Cc1cccc(Nc2ncnc3cc(OCCOC)c(OCCOC)cc23)c1` [Erlotinib], the “Short-time stability (1h, 56°C) Accuracy [%]” value reads like this: (validation standard 2xLLOV) 61.0%; (validation standard LLOV) 69.2%; (validation standard MOV) 52.1%; (validation standard ULOV) 45.8%. The “Short-time stability (24h, 4°C, without daylight) Accuracy [%]” value runs as follows: (validation standard 2xLLOV) 100.7%; (validation standard LLOV) 110.4%; (validation standard MOV) 98.0%; (validation standard ULOV) 98.7%. Moreover, the “Short-time stability (24h, RT, without daylight) Accuracy [%]” value is 95.3% (validation standard 2xLLOV), 107.4% (validation standard LLOV), 97.9% (validation standard MOV) and 101.0% (validation standard ULOV).
On to `COc1cc2ncnc(Nc3ccc(F)c(Cl)c3)c2cc1OCCCN1CCOCC1` [Gefitinib], for which the “Short-time stability (1h, 56°C) Accuracy [%]” value runs as follows: (validation standard 2xLLOV) 46.0%; (validation standard LLOV) 33.3%; (validation standard MOV) 49.1%; (validation standard ULOV) 42.1%. Moreover, the “Short-time stability (24h, 4°C, without daylight) Accuracy [%]” value (validation standard 2xLLOV) amounted to 97.4%; the “Short-time stability (24h, 4°C, without daylight) Accuracy [%]” value (validation standard LLOV) is given as 90.9%; the “Short-time stability (24h, 4°C, without daylight) Accuracy [%]” value (validation standard MOV) stood at 103.4%; the “Short-time stability (24h, 4°C, without daylight) Accuracy [%]” value (validation standard ULOV) came out at 94.9%. Also, the “Short-time stability (24h, RT, with daylight) Accuracy [%]” value reads like this: (validation standard 2xLLOV) 91.9%; (validation standard LLOV) 83.0%; (validation standard MOV) 96.2%; (validation standard ULOV) 88.3%. Moreover, the “Short-time stability (24h, RT, without daylight) Accuracy [%]” value (validation standard 2xLLOV) was 92.1%; the “Short-time stability (24h, RT, without daylight) Accuracy [%]” value (validation standard LLOV) is recorded as 83.7%; the “Short-time stability (24h, RT, without daylight) Accuracy [%]” value (validation standard MOV) came out at 93.8%; the “Short-time stability (24h, RT, without daylight) Accuracy [%]” value (validation standard ULOV) worked out at 87.7%.
Turning to `Cc1ccc(NC(=O)c2ccc(CN3CCN(C)CC3)cc2)cc1Nc1nccc(-c2cccnc2)n1` [Imatinib], the “Short-time stability (24h, 4°C, without daylight) Accuracy [%]” value (validation standard 2xLLOV) came out at 105.2%; the “Short-time stability (24h, 4°C, without daylight) Accuracy [%]” value (validation standard LLOV) is on record as 81.3%; the “Short-time stability (24h, 4°C, without daylight) Accuracy [%]” value (validation standard MOV) stood at 102.2%; the “Short-time stability (24h, 4°C, without daylight) Accuracy [%]” value (validation standard ULOV) was 94.2%. The “Short-time stability (24h, RT, with daylight) Accuracy [%]” value is reported as 86.0% (validation standard 2xLLOV), 83.7% (validation standard LLOV), 93.6% (validation standard MOV) and 85.6% (validation standard ULOV). In addition, the “Short-time stability (24h, RT, without daylight) Accuracy [%]” value is listed as 82.7% (validation standard 2xLLOV), 83.8% (validation standard LLOV), 88.6% (validation standard MOV) and 82.9% (validation standard ULOV).
